Reference: patent US20040197859A1, “Isolated dna molecules encoding humanized calcitonin gene-related peptide receptor, related non-human transgenic animals and assay methods” (priority 2001, published 2004)

How the values were obtained:
rCRLR/Chimera 1 = target: T1, rCRLR/Chimera 1 (Rattus norvegicus, UniProt Q63118+Q9JJ74, D29E/D31N/E46V/G64R/I36L/I51V/K45Q/K53E/K61R/P30A/Q37R/R28Q/R43Q/S42T/T34A/T50A/V24T); assay: competitive 125I-hCGRP binding, membranes expressing rCRLR with RAMP1 Chimera 1; parameters: species or system rat CRLR, human/rat chimeric RAMP1; conditions: Table 5; rCRLR/Chimera 1 (first 66 aa of rRAMP1 replaced with human)
T1 construct: expressed in transfected cells; host or cells: 293 EBNA cells, transient co-transfection, membranes
Description: Two human/rat chimeric RAMP1 cDNAs were constructed by using restriction fragments of the corresponding native cDNAs. Chimera 1 was created by replacing the nucleotides coding for the first 66 amino acids of rRAMP1 with the corresponding nucleotides of hRAMP1 by using the BsgI restriction site along with a NheI site located in the cloning vector. Chimera 2 was created by replacing the nucleotides coding for the first 112 amino acids of rRAMP1 with the corresponding nucleotides of hRAMP1 by using the SanDI restriction site along with a NheI site located in the cloning vector. Cell Culture and DNA Transfection-293 EBNA cells were cultured in DMEM with 4.5 g/L glucose, 1 mM sodium pyruvate and 2 mM glutamine supplemented with 10% Fetal Bovine Serum (FBS), 100 units/mL penicillin and 100 μg/mL streptomycin, and maintained at 37° C. and 95% humidity. Cells were subcultured by treatment with 0.25% trypsin with 0.1% EDTA in HBSS. Twenty-four hours prior to transfection, the cells were seeded at 2.0×10^7/dish in 500 cm^2 dishes. The following day, the cells were re-fed with fresh growth medium 1 hour before transfection. Transfections were performed by combining 60 μg/dish DNA with 180 μg/dish Lipofectamine 2000 (Life Technologies). cDNA's for CRLR and RAMP1 in the mammalian expression vector pcDNA3.1 were co-transfected in equal amounts. […] Data were analyzed by using GraphPad Prism. […]

rCRLR/rK74W RAMP1 = target: T2, rCRLR/rK74W RAMP1 (Rattus norvegicus, UniProt Q63118+Q9JJ74, K74W); assay: competitive 125I-hCGRP binding, membranes expressing rCRLR and mutant rK74W RAMP1; conditions: Table 6
T2 construct: and the rRAMP1 expression vector construct as template; expressed in transfected cells; host or cells: 293 EBNA cells, transient co-transfection, membranes
Procedure: Rat RAMP1 site-directed mutagenesis was performed by using the Quick Change Site-directed Mutagenesis Kit (Stratagene) according to the manufacturer's instructions. […] of rRAMP1 was replaced with the corresponding human/marmoset amino acid tryptophan utilizing two complementary mutant oligonucleotide primers ([NT] ID NO:27] and [NT] ID NO:28]) and the rRAMP1 expression vector construct as template. This mutation was accomplished by substituting the codon TGG corresponding to tryptophan (r[…] RAMP1). All constructs were sequenced bidirectionally with 100% coverage in each direction. Cell Culture and DNA Transfection-293 EBNA cells were cultured in DMEM with 4.5 g/L glucose, 1 mM sodium pyruvate and 2 mM glutamine supplemented with 10% Fetal Bovine Serum (FBS), 100 units/mL penicillin and 100 μg/mL streptomycin, and maintained at 37° C. and 95% humidity. Cells were subcultured by treatment with 0.25% trypsin with 0.1% EDTA in HBSS. Twenty-four hours prior to transfection, the cells were seeded at 2.0×10^7/dish in 500 cm^2 dishes. The following day, the cells were re-fed with fresh growth medium 1 hour before transfection. Transfections were performed by combining 60 μg/dish DNA with 180 μg/dish Lipofectamine 2000 (Life Technologies). cDNA's for CRLR and RAMP1 in the mammalian expression vector pcDNA3.1 were co-transfected in equal amounts. […] Data were analyzed by using GraphPad Prism. […]

human CGRP receptor = human CGRP receptor (Homo sapiens, UniProt O60894+Q16602); conditions: cited from earlier work
[1] = target: T3, mCRLR/mRAMP1 (native mouse receptor) (Mus musculus, UniProt Q9R1W5+Q9WTJ5); assay: competitive binding, membranes expressing mCRLR/mRAMP1; conditions: Table 7
T3 construct: expressed in transfected cells
Procedure: (§1) Cell Culture and DNA Transfection—293 EBNA cells were cultured in DMEM with 4.5 g/L glucose, 1 mM sodium pyruvate and 2 mM glutamine supplemented with 10% Fetal Bovine Serum (FBS), 100 units/mL penicillin and 100 μg/mL streptomycin, and maintained at 37° C. and 95% humidity. Cells were subcultured by treatment with 0.25% trypsin with 0.1% EDTA in HBSS.
(§2) Twenty-four hours prior to transfection, the cells were seeded at 2.0×10^7/dish in 500 cm^2 dishes. The following day, the cells were re-fed with fresh growth medium 1 hour before transfection. Transfections were performed by combining 60 μg/dish DNA with 180 μg/dish Lipofectamine 2000 (Life Technologies). cDNA's for CRLR and RAMP1 in the mammalian expression vector pcDNA3.1 were co-transfected in equal amounts. The transfection cocktail was added directly to the medium and this mixture was replaced with fresh medium 24 hours later. The cells were harvested for membranes 48 hours post-transfection.
(§3) Membrane Preparation and Radioligand Binding Studies—Transiently transfected 293 EBNA cells were washed once with PBS and harvested in harvest buffer containing 50 mM HEPES, 1 mM EDTA and Complete protease inhibitors (Roche).

rCRLR/hRAMP1 = target: T4, rCRLR/hRAMP1 (UniProt O60894+Q63118); assay: competitive 125I-hCGRP binding, membranes expressing hybrid rCRLR/hRAMP1; parameters: species or system rat CRLR, human RAMP1; conditions: Table 4
T4 construct: expressed in transfected cells; host or cells: 293 EBNA cells, transient co-transfection, membranes
Procedure: as §1
as §2, with “post-transfection. […]” for “post-transfection.”
For binding assays, 1.5-25 μg of membranes (dependent upon receptor expression levels) were incubated for 3 hours at room temperature in binding buffer (10 mM HEPES, 5 mM MgCl2, 0.2% BSA) containing 10 pM ^125I-hCGRP (Amersham) in a total volume of 1 mL. […] Data were analyzed by using GraphPad Prism.

mCRLR/mK74W RAMP1 = target: T5, mCRLR/mK74W RAMP1 (Mus musculus, UniProt Q9R1W5+Q9WTJ5, K74W); assay: competitive binding, membranes expressing mCRLR and mutant mK74W RAMP1; conditions: Table 7
T5 construct: The mouse RAMP1 expression vector construct was used as template; expressed in transfected cells
Procedure: as §1, §2, §3

[2] = target: T6, rCRLR/rRAMP1 (native rat CGRP receptor) (Rattus norvegicus, UniProt Q63118+Q9JJ74); assay: competitive 125I-hCGRP binding, membranes expressing rCRLR/rRAMP1
T6 construct: expressed in transfected cells; host or cells: 293 EBNA cells, transient co-transfection, membranes
Procedure: as §1, §2, §3

rCRLR/rRAMP1 (rat) = rCRLR/rRAMP1 (rat) (UniProt Q63118); assay: competitive radioligand binding against 10 pM 125I-hCGRP, membranes of transfected 293 EBNA cells

Q: Which results are given for `NCCCC[C@H](NC(=O)[C@@H](Cc1cc(Br)c(O)c(Br)c1)NC(=O)N1CCC(N2Cc3ccccc3NC2=O)CC1)C(=O)N1CCN(c2ccncc2)CC1` [BIBN4096BS]?
A: IC50 (rCRLR/Chimera 1): 4.8 nM; IC50 (rCRLR/rK74W RAMP1): 0.08 nM; higher affinity for the human CGRP receptor than for the rat receptor (human CGRP receptor; human vs rat, Doods et al.): 200 fold; lower affinity for CGRP receptors from rat, rabbit, dog, and guinea pig (human CGRP receptor; versus human CGRP receptor, Doods et al. 2000): 200 fold; IC50 [1]: 8.5 nM; IC50 (rCRLR/hRAMP1): 0.41 nM; IC50 (mCRLR/mK74W RAMP1): 0.1 nM; IC50 ([2]; Table 4): 6.9 nM; IC50 ([2]; Table 6): 5.5 nM

Q: For CGRP8-37 (peptide), which IC50 (rCRLR/rRAMP1 (rat)) is on record?
A: 2 nM
